BindingDB's records for doi:10.1021/jm000508c (Ontogen, 2001)
pIC50: −log10 of the molar value.

Experiments:
[1] = Inhibitory activity against P-selectin using cell-cell assay
[2] = Inhibitory activity against Selectin E using cell-cell assay

Row | pIC50 [1] | pIC50 [2] | Compound
1 | 3.30 | – | CCCCCCCCCCCCNC(=O)C=Cc1ccc(-c2[nH]c(-c3ccc(-c4cc(C(=O)O)on4)cc3)nc2-c2ccc(C=CC(=O)O)cc2)cc1 [3-(4-{4-[4-(2-Carboxy-vinyl)-phenyl]-5-[4-(2-dodecylcarbamoyl-vinyl)-phenyl]-1H-imidazol-2-yl}-phenyl)-isoxazole-5-carboxylic acid]
2 | 4.85 | 4.52 | CCCCCCCCCCCCCCCCNC(=O)C=Cc1ccc(-c2[nH]c(-c3ccc(C4=NOC(C(=O)O)C4)cc3)nc2-c2ccc(C=CC(=O)O)cc2)cc1 (stereo not drawn) [3-(4-{4-[4-(2-Carboxy-vinyl)-phenyl]-5-[4-(2-hexadecylcarbamoyl-vinyl)-phenyl]-1H-imidazol-2-yl}-phenyl)-4,5-dihydro-isoxazole-5-carboxylic acid]
3 | 5.10 | 4.70 | CCCCCCCCCCCCCCCCNC(=O)C=Cc1ccc(-c2[nH]c(-c3ccc(-c4cc(C(=O)O)on4)cc3)nc2-c2ccc(C=CC(=O)O)cc2)cc1 [3-(4-{4-[4-(2-Carboxy-vinyl)-phenyl]-5-[4-(2-hexadecylcarbamoyl-vinyl)-phenyl]-1H-imidazol-2-yl}-phenyl)-isoxazole-5-carboxylic acid]
4 | 4.01 | < 4.00 | CCCCCCCCCCCCCCCCNC(=O)C=Cc1ccc(-c2[nH]cnc2-c2ccc(C=CC(=O)O)cc2)cc1 [3-(4-{5-[4-(2-Hexadecylcarbamoyl-vinyl)-phenyl]-1H-imidazol-4-yl}-phenyl)-acrylic acid]
5 | 3.91 | – | O=C(O)C=Cc1ccc(-c2nc(-c3ccc(C4=NOC(C(=O)O)C4)cc3)c(-c3ccc(C=CC(=O)NCCCc4ccccc4)cc3)[nH]2)cc1 (stereo not drawn) [3-[4-(2-[4-(2-Carboxy-vinyl)-phenyl]-5-{4-[2-(3-phenyl-propylcarbamoyl)-vinyl]-phenyl}-1H-imidazol-4-yl)-phenyl]-4,5-dihydro-isoxazole-5-carboxylic acid]
